US20240059689A1, “PURINE DERIVATIVES AS ANTICANCER AGENTS” (Tango Therapeutics, Inc., priority 2021, published 2024)

How the values were obtained:
[1] = biological target: USP1-UAF1 (Homo sapiens, UniProt O94782); experiment: Ubiquitin Rhodamine assay of USP1-UAF1 activity; format: biochemical
Method: Certain compounds of the disclosure were assessed for USP1-UAF1 activity in a Ubiquitin Rhodamine assay as described in Biology Example 1.

[2] = test system: MDA-MB-436; experiment: Viability assay, BRCA1 mutant cell line MDA-MB-436; format: cell-based; conditions: Homo sapiens, MDA-MB-436, viability, BRCA1 mutant MDA-MB-436; read-out: MDA-MB-436 rel IC50
Text: (§1) Table 1 also indicates IC50 values in a viability assay for a non-isogenic pair of BRCA1 mutant (column 5-MDA-MB-436) and BRCA1 WT (column 6—HCC1954) cell lines. These values indicate the effect of treatment with compound on cell survival.

[3] = test system: HCC1954; experiment: Viability assay, BRCA1 WT cell line HCC1954; format: cell-based; conditions: Homo sapiens, HCC1954, viability, read-out: HCC1954 rel IC50
Text: as §1

[4] = test system: monoubiquitinated PCNA; experiment: AlphaLISA assay measuring monoubiquitinated PCNA in MDA-MB-436; format: cell-based; conditions: Homo sapiens, MDA-MB-436, monoubiquitinated PCNA, read-out: Alpha Lisa IC50
Text: Table 1 also indicates IC50 values for exemplary compounds in an AlphaLISA assay measuring monoubiquitinated PCNA in a BRCA1 mutant cell line (MDA-MB-436; column 7).

USP1-UAF1, sequence (O94782 whole entry): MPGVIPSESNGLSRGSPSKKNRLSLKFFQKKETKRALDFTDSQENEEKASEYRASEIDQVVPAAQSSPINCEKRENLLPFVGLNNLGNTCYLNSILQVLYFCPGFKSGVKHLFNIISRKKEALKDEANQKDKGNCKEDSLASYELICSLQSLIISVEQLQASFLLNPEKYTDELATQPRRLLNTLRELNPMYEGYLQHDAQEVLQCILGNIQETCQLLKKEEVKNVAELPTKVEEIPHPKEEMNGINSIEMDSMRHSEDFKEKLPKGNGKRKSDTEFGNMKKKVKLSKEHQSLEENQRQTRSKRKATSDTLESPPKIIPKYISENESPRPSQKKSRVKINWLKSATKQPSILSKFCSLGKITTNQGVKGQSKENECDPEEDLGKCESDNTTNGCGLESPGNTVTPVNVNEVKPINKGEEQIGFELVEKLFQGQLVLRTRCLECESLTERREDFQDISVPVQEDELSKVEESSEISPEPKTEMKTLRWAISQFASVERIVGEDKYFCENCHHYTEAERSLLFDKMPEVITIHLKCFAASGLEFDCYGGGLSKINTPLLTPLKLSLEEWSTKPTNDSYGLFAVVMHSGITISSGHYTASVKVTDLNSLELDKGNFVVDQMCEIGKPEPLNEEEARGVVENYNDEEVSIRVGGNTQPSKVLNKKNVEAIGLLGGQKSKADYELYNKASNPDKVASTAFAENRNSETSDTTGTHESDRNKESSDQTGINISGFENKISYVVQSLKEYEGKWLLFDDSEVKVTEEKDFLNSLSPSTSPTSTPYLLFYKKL
USP1-UAF1, sequence (Q8TAF3 whole entry partner): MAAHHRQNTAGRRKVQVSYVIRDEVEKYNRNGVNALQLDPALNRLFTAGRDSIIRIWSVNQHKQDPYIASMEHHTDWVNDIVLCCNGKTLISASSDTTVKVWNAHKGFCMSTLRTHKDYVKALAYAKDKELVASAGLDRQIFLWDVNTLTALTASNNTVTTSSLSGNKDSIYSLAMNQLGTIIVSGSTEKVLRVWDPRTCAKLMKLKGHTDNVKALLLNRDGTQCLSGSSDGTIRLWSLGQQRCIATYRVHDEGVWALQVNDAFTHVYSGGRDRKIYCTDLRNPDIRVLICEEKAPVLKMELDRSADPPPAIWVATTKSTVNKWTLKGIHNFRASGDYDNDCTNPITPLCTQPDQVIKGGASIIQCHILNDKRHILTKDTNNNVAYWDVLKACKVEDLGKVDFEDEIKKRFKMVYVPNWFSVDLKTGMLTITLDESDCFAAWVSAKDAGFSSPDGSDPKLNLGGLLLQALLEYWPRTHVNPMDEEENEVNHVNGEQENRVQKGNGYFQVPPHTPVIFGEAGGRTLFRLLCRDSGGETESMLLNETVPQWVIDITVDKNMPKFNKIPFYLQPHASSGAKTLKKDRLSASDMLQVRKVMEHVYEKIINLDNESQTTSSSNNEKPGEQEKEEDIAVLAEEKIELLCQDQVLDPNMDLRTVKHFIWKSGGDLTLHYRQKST

Structure (SMILES)	IC50 [1] [µM]	IC50 [2] [µM]	IC50 [3] [µM]	IC50 [4] [µM]
CC(C)c1ccccc1-c1nc(N(C)C)c2c(n1)n(Cc1ccc(-c3nc(C(F)(F)F)cn3C)cc1)c(=N)n2C [Example A-17, 8-imino-2-(2-isopropylphenyl)-N,N,7-trimethyl-9-(4-(1-methyl-4-(trifluoromethyl)-1H-imidazol-2-yl)benzyl)-8,9-dihydro-7H-purin-6-amine]	0.1 to 10	0.25 to 10	0.25 to 10	0.25 to 10
CCOc1ncnc(C2CC2)c1-c1ncc2c(n1)n(Cc1ccc(-c3nc(C(F)(F)F)cn3C)cc1)c(=N)n2CC(F)(F)F [Example T-119, 2-(4-cyclopropyl-6-ethoxy-pyrimidin-5-yl)-9-[[4-[1-methyl-4-(trifluoromethyl)imidazol-2-yl]phenyl]methyl]-7-(2,2,2-trifluoroethyl)purin-8-imine]	0.1 to 10	0.1 to 0.25	≥ 10	0.1 to 0.25
CC(C)c1ccncc1-c1ncc2c(n1)n(Cc1ccc(-c3nc(C(F)(F)F)cn3C)cc1)c(=N)n2C [Example T-035]	0.1 to 10	0.25 to 10	≥ 10	0.25 to 10
COc1nccc(F)c1-c1ncc2c(n1)n(Cc1ccc(-c3nc(C(F)(F)F)cn3C)cc1)c(=N)n2CC(F)(F)F [Example T-121, 2-(4-fluoro-2-methoxy-3-pyridyl)-9-[[4-[1-methyl-4-(trifluoromethyl)imidazol-2-yl]phenyl]methyl]-7-(2,2,2-trifluoroethyl)purin-8-imine]	0.03 to 0.1	0.1 to 0.25	≥ 10	0.25 to 10
COc1ncnc(C2CC2)c1-c1ncc2c(n1)n(Cc1ccc(-n3nc(C(F)F)cc3OC)cc1)c(=N)n2CC(F)(F)F [Example T-100, 2-(4-cyclopropyl-6-methoxy-pyrimidin-5-yl)-9-[[4-[3-(difluoromethyl)-5-methoxy-pyrazol-1-yl]phenyl]methyl]-7-(2,2,2-trifluoroethyl)purin-8-imine]	0.1 to 10	0.1 to 0.25	≥ 10	0.1 to 0.25
COc1ncc(F)cc1-c1ncc2c(n1)n(Cc1ccc(-c3nc(C(F)(F)F)cn3C)cc1)c(=N)n2C [Example T-013]	0.1 to 10	0.25 to 10	≥ 10	0.25 to 10
Cn1cc(C(F)(F)F)nc1-c1ccc(Cn2c(=N)n(C)c3cnc(-c4cccc5c4OC(F)(F)O5)nc32)cc1 [Example T-011, 2-(2,2-difluoro-1,3-benzodioxol-4-yl)-7-methyl-9-[[4-[1-methyl-4-(trifluoromethyl)imidazol-2-yl]phenyl]methyl]purin-8-imine]	0.03 to 0.1	0.25 to 10	0.25 to 10	0.25 to 10
CC(C)n1cc(C(F)(F)F)nc1-c1ccc(Cn2c(=N)n(C)c3cnc(-c4cccnc4OCC(F)(F)F)nc32)cc1 [Example T-031]	0.1 to 10	0.25 to 10	≥ 10	0.25 to 10
CC(C)c1ccccc1-c1ncc2c(n1)n(C[C@H]1CC[C@H](c3nc(C(F)(F)F)cn3C)CC1)c(=N)n2C [Example T-030]	0.1 to 10	< 0.1	0.25 to 10	< 0.1
Cc1nc(-c2ccccc2Cl)nc2c1n(C)c(=N)n2Cc1ccc(-c2nc(Cl)cn2C)cc1 [Example A-36, 9-(4-(4-chloro-1-methyl-1H-imidazol-2-yl)benzyl)-2-(2-chlorophenyl)-6,7-dimethyl-7,9-dihydro-8H-purin-8-imine]	0.1 to 10	0.25 to 10	≥ 10	0.25 to 10
COc1cc(-c2nc(C(F)(F)F)cn2C)ccc1Cn1c(=N)n(C)c2cnc(-c3ccccc3C(F)(F)F)nc21 [Example T-029]	0.1 to 10	0.1 to 0.25	0.25 to 10	0.1 to 0.25

Further lines, results first:

IC50 [1] [µM]	IC50 [2] [µM]	IC50 [3] [µM]	IC50 [4] [µM]	Structure (SMILES)
0.03 to 0.1	< 0.1	≥ 10	0.1 to 0.25	[2H]C([2H])([2H])Oc1ncnc(C2CC2)c1-c1ncc2c(n1)n(Cc1ccc(-c3nc(C(F)(F)F)cn3C(C)C)cc1)c(=N)n2CC(F)(F)F [Example T-135, 2-[4-cyclopropyl-6-(trideuteriomethoxy)pyrimidin-5-yl]-9-[[4-[1-isopropyl-4-(trifluoromethyl)imidazol-2-yl]phenyl]methyl]-7-(2,2,2-trifluoroethyl)purin-8-imine]
0.03 to 0.1	0.25 to 10	0.25 to 10	0.25 to 10	CC(C)c1ccccc1-c1ncc2c(n1)n(Cc1ccc(-c3nc(C(F)(F)F)cs3)cc1)c(=N)n2C [Example A-25, 2-(2-isopropylphenyl)-7-methyl-9-(4-(4-(trifluoromethyl)thiazol-2-yl)benzyl)-7,9-dihydro-8H-purin-8-imine]
< 0.03	0.1 to 0.25	0.25 to 10	< 0.1	CC(C)c1ccccc1-c1ncc2c(n1)n(Cc1ccc(-c3nc(C(F)(F)F)cn3C)cc1)c(=N)n2C1CCC1 [Example A-34, 7-cyclobutyl-2-(2-isopropylphenyl)-9-(4-(1-methyl-4-(trifluoromethyl)-1H-imidazol-2-yl)benzyl)-7,9-dihydro-8H-purin-8-imine]
< 0.03	< 0.1	0.25 to 10	< 0.1	CC(C)c1c(F)cccc1-c1ncc2c(n1)n(Cc1ccc(-c3nc(C(F)(F)F)cn3C)cc1)c(=N)n2C [Example B-9, 2-(3-fluoro-2-isopropylphenyl)-7-methyl-9-(4-(1-methyl-4-(trifluoromethyl)-1H-imidazol-2-yl)benzyl)-7,9-dihydro-8H-purin-8-imine]
< 0.03	< 0.1	0.25 to 10	< 0.1	C=C(C)c1ccccc1-c1nc(C)c2c(n1)n(Cc1ccc(-c3nc(C(F)(F)F)cn3C)cc1)c(=N)n2C [Example A-16, 6,7-dimethyl-9-(4-(1-methyl-4-(trifluoromethyl)-1H-imidazol-2-yl)benzyl)-2-(2-(prop-1-en-2-yl)phenyl)-7,9-dihydro-8H-purin-8-imine]
< 0.03	0.1 to 0.25	0.25 to 10	0.1 to 0.25	Cn1cc(C(F)(F)F)nc1-c1ccc(Cn2c(=N)n(C)c3cnc(-c4c(Cl)cccc4Cl)nc32)cc1 [Example B-5, 2-(2,6-dichlorophenyl)-7-methyl-9-(4-(1-methyl-4-(trifluoromethyl)-1H-imidazol-2-yl)benzyl)-7,9-dihydro-8H-purin-8-imine]
0.03 to 0.1	0.1 to 0.25	≥ 10	0.1 to 0.25	Cn1cc(C(F)(F)F)nc1-c1ccc(Cn2c(=N)n(C)c3cnc(-c4ccccc4[C@H](O)C(F)(F)F)nc32)cc1 (single isomer, unassigned) [Example T-129, 2,2,2-trifluoro-[2-[8-imino-7-methyl-9-[[4-[I-methyl-4-(trifluoromethyl)imidazol-2-yl]phenyl]methyl]purin-2-yl]phenyl]ethanol]
0.03 to 0.1	0.25 to 10	≥ 10	0.1 to 0.25	COc1ncnc(C2CC2)c1-c1ncc2c(n1)n(Cc1cc(F)c(-c3nc(C(F)(F)F)cn3C)cc1F)c(=N)n2C [Example T-044]
< 0.03	0.1 to 0.25	0.25 to 10	0.1 to 0.25	CC(C)c1cc(F)ccc1-c1ncc2c(n1)n(Cc1ccc(-c3nc(C(F)(F)F)cn3C)cc1)c(=N)n2C [Example B-10, 2-(4-fluoro-2-isopropylphenyl)-7-methyl-9-(4-(1-methyl-4-(trifluoromethyl)-1H-imidazol-2-yl)benzyl)-7,9-dihydro-8H-purin-8-imine]
< 0.03	0.25 to 10	0.25 to 10	0.25 to 10	CC(C)c1ccccc1-c1nc(Cl)c2c(n1)n(Cc1ccc(-c3nc(C(F)(F)F)cn3C)cc1)c(=N)n2C (single isomer, unassigned) [Example A-22a, 6-chloro-2-(2-isopropylphenyl)-7-methyl-9-(4-(1-methyl-4-(trifluoromethyl)-1H-imidazol-2-yl)benzyl)-7,9-dihydro-8H-purin-8-imine]
< 0.03	0.25 to 10	0.25 to 10	0.1 to 0.25	Cc1nc(-c2cc(F)ccc2C(C)C)nc2c1n(C)c(=N)n2Cc1ccc(-c2nc(Cl)cn2C)cc1 [Example A-27, 9-(4-(4-chloro-1-methyl-1H-imidazol-2-yl)benzyl)-2-(5-fluoro-2-isopropylphenyl)-6,7-dimethyl-7,9-dihydro-8H-purin-8-imine]
< 0.03	< 0.1	≥ 10	< 0.1	COc1ncnc(C2CC2)c1-c1ncc2c(n1)n(Cc1ccc(-n3nc(C(F)(F)F)cc3OC)cc1)c(=N)n2CC(F)F [Example T-113, 2-(4-cyclopropyl-6-methoxy-pyrimidin-5-yl)-7-(2,2-difluoroethyl)-9-[[4-[5-methoxy-3-(trifluoromethyl)pyrazol-1-yl]phenyl]methyl]purin-8-imine]
< 0.03	< 0.1	≥ 10	< 0.1	C=C(C)c1ccccc1-c1ncc2c(n1)n(Cc1ccc(-c3nc(Cl)cn3C)cc1)c(=N)n2C [Example A-12, 9-(4-(4-chloro-1-methyl-1H-imidazol-2-yl)benzyl)-7-methyl-2-(2-(prop-1-en-2-yl)phenyl)-7,9-dihydro-8H-purin-8-imine]
